Eleven compounds from patent US9115126B2, “1H-[1,2,3]triazolo[4,5-c]pyridine-4-carbonitrile derivatives” (Merck Sharp & Dohme B.V., priority 2010, dated 2015) can be followed below.

This assay deals with recombinant human Cathepsin S (Homo sapiens (Human), UniProt P25774). Put plainly: Cathepsin S assay procedure (fluorogenic substrate Z-Val-Val-Arg-AMC). Type of assay: biochemical. On the procedure: 25 μl of a 2 mg/l solution of activated recombinant human cathepsin S, in assay buffer, is then added to the well, yielding a final inhibitor concentration of 10 μM.
Sequence of recombinant human Cathepsin S (P25774 115-331): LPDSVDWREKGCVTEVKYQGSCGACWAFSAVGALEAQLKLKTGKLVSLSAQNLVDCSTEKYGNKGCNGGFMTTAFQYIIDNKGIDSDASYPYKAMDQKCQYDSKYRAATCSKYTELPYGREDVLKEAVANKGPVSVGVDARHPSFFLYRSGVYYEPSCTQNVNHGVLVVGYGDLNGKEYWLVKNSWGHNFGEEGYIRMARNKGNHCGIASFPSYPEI
Enzyme activity is determined by measuring the fluorescence of the liberated aminomethylcoumarin at […] using 390 nm excitation, at 20 minutes. Percentage enzyme activity is calculated by comparison of this activity to that of a solution containing no inhibitor.

The mark [1] stands for this setting: read-out: pIC50 (negative logarithm of the IC50 concentration) for inhibition of human cathepsin S (converted).

Structures can show the parent of a compound that is named as a salt. Where two headings read alike, the source gives them in different places.

As to `Cn1nnc2c(C#N)nc(-c3ccc(OCCC4CCN(CCS(C)(=O)=O)CC4)c(C(F)(F)F)c3)cc21` [Example 19, 1-methyl-6-(4-(2-(1-(2-(methylsulfonyl)ethyl)piperidin-4-yl)ethoxy)-3-(trifluoromethyl)phenyl)-1H-[1,2,3]triazolo[4,5-d]pyridine-4-carbonitrile], the IC50 under setting [1] is < 10 nM.
The same measure, in the same setting: for `Cn1nnc2c(C#N)nc(-c3cnc(OCCC4CCNCC4)c(C(F)(F)F)c3)cc21` [Example 26, 1-Methyl-6-(6-(2-(piperidin-4-yl)ethoxy)-5-(trifluoromethyl)pyridin-3-yl)-1H-[1,2,3]-triazolo[4,5-c]pyridine-4-carbonitrile trifluoroacetate] the value was < 10 nM; for `CN(C)C(=O)CN1CC(CCOc2ccc(-c3cc4c(nnn4C)c(C#N)n3)cc2C(F)(F)F)C1` [Example 31, 6-(4-(2-(1-(2-dimethylamino-2-oxoethyl)azetidin-3-yl)ethoxy)-3-(trifluoromethyl)phenyl)-1-methyl-1H-[1,2,3]triazolo[4,5-c]pyridine-4-carbonitrile Hydrochloride], < 10 nM; for `Cn1nnc2c(C#N)nc(-c3ccc(OCCC4CCN(Cc5ncon5)CC4)c(C(F)(F)F)c3)cc21` [Example 3c, 6-(4-(2-(1-((1,2,4-oxadiazol-3-yl)methyl)piperidin-4-yl)ethoxy)-3-(trifluoromethyl)phenyl)-1-methyl-1H-[1,2,3]triazolo[4,5-c]pyridine-4-carbonitrile], < 10 nM.
As to `Cc1cccc(N2CCC(CCOc3ccc(-c4cc5c(ncn5C)c(C#N)n4)cc3C(F)(F)F)CC2)n1` [EP 09150709.5 - Example 24c, reference compound], the IC50 (pH5.5, fluorescence at 20 minutes, read-out: Cat S activity IC50) is 26 nM.
For the compound `Cc1ccc(N2CC[C@@H](CCOc3ccc(-c4cc5c(nnn5C)c(C#N)n4)cc3C(F)(F)F)C2)nc1` [Example 9a, (S)-1-methyl-6-(4-(2-(1-(5-methylpyridin-2-yl)pyrrolidin-3-yl)ethoxy)-3-(trifluoromethyl)phenyl)-1H-[1,2,3]triazolo[4,5-c]pyridine-4-carbonitrile hydrochloride], under setting [1], the IC50 is < 10 nM.
The same measure, in the same setting: the value for `Cn1nnc2c(C#N)nc(-c3ccc(OCCN4CCN(CCO)CC4)c(C(F)(F)F)c3)cc21` [Example 37e, 6-(4-(2-(4-(2-hydroxyethyl)piperazin-1-yl)ethoxy)-3-(trifluoromethyl)phenyl)-1-methyl-1H-[1,2,3]triazolo[4,5-c]pyridine-4-carbonitrile] was < 10 nM.
The same measure, in the same setting: the value for `CC(C)c1noc(COc2ccc(-c3cc4c(nnn4C)c(C#N)n3)cc2C(F)(F)F)n1` [Example 43, 6-(4-((3-isopropyl-1,2,4-oxadiazol-5-yl)methoxy)-3-(trifluoromethyl)phenyl)-1-methyl-1H-[1,2,3]triazolo[4,5-c]pyridine-4-carbonitrile] was < 10 nM.
On to `Cn1nnc2c(C#N)nc(-c3ccc(OCc4cccc[n+]4[O-])c(C(F)(F)F)c3)cc21` [Example 21, 1-methyl-6-(4-(1-N-oxy-pyridin-2-ylmethoxy)-3-(trifluoromethyl)phenyl)-1H-[1,2,3]triazolo[4,5-c]pyridine-4-carbonitrile], for which the IC50 under setting [1] was < 10 nM.
The same measure, in the same setting: for `Cn1nnc2c(C#N)nc(-c3ccc(OCCN4CCNC(C(F)(F)F)C4)c(C(F)(F)F)c3)cc21` (centres unmarked) [Example 37q, 1-methyl-6-(3-(trifluoromethyl)-4-(2-(3-(trifluoromethyl)piperazin-1-yl)ethoxy)phenyl)-1H-[1,2,3]triazolo[4,5-c]pyridine-4-carbonitrile] the value was < 10 nM.
The same measure, in the same setting: for `Cc1ccc(N2CCC(CCOc3ccc(-c4cc5c(nnn5C)c(C#N)n4)cc3C(F)(F)F)CC2)nc1` [Example 8, 1-methyl-6-(4-(2-(1-(5-methylpyridin-2-yl)piperidin-4-yl)ethoxy)-3-(trifluoromethyl)phenyl)-1H-[1,2,3]triazolo[4,5-c]pyridine-4-carbonitrile hydrochloride] the value was < 10 nM.
